In ChEMBL document CHEMBL1151727, “Citrullination of linear and cyclic altered peptide ligands from myelin basic protein (MBP(87-99)) epitope elicits a Th1 polarized response by T cells isolated from multiple sclerosis patients: implications in triggering disease” (J Med Chem, 2008):
Active and inactive are the calls of the source. Where a SMILES comes first, the peptide text is derived from it. [ ]: non-standard residue; d: D form. Cit = NC(=O)NCCC[C@H](N)C(=O)O

Assays:
Type in all cases: functional, cell-based
PBMC [1] = assay: Induction of IL10 secretion in healthy human PBMC at 10 pg/mL per 10^6 cells after 72 hrs by ELISA
PBMC [2] = assay: Decrease in IL10 secretion in PBMC isolated from multiple sclerosis patient at 10 pg/mL per 10^6 cells after 72 hrs by ELISA; settings: Homo sapiens
PBMC [3] = assay: Induction of IFN-gamma secretion in healthy human PBMC at 10 pg/mL per 10^6 cells after 72 hrs by ELISA
PBMC [4] = assay: Increase in IFN-gamma secretion in PBMC isolated from multiple sclerosis patient at 10 pg/mL per 10^6 cells after 72 hrs by ELISA; settings: Homo sapiens
PBMC [5] = assay: Increase in IL2 secretion in PBMC isolated from multiple sclerosis patient at 10 pg/mL per 10^6 cells after 72 hrs by ELISA; settings: Homo sapiens

Measured: Activity

CC[C@H](C)[C@H](NC(=O)[C@H](CC(N)=O)NC(=O)[C@H](CCCCN)NC(=O)[C@H](Cc1ccccc1)NC(=O)[C@H](Cc1ccccc1)NC(=O)[C@H](Cc1cnc[nH]1)NC(=O)[C@@H](N)C(C)C)C(=O)N[C@H](C(=O)N[C@H](C(=O)N1CCC[C@H]1C(=O)N[C@@H](CCCNC(=N)N)C(=O)N[C@H](C(=O)N1CCC[C@H]1C(=O)O)[C@@H](C)O)[C@@H](C)O)C(C)C
active: PBMC [1] | PBMC [2]

CC[C@H](C)[C@H](NC(=O)[C@H](CC(N)=O)NC(=O)[C@H](CCCNC(N)=O)NC(=O)[C@H](Cc1ccccc1)NC(=O)[C@H](Cc1ccccc1)NC(=O)[C@H](Cc1cnc[nH]1)NC(=O)[C@@H](N)C(C)C)C(=O)N[C@H](C(=O)N[C@H](C(=O)N[C@@H](C)C(=O)N[C@@H](CCCNC(N)=O)C(=O)N[C@H](C(=O)N1CCC[C@H]1C(=O)O)[C@@H](C)O)[C@@H](C)O)C(C)C (H-VHFF[Cit]NIVTA[Cit]TP-OH)
active: all assays above

H-VHFFRNIVTARTP-OH
active: PBMC [3] | PBMC [1]
